“And” between values parts separate entries of the source, which are not always exact repeats. Equal entries are not always repeated.
Key:
mice [1] = assay: Acetone test, cold allodynia after spared nerve injury; assay type: in vivo, mouse
Description: Mice were placed on a wire mesh and thirty min after an i.p. injection of the compounds we applied a drop (50 μL) of acetone on the ventral aspect of the hindpaw, 5 times every 30 sec. We recorded the number of nocifensive behaviors (paw lifts/licks/shakes/bites) over the 5 applications.

[2] = Pharmacokinetics: plasma, brain, CSF; details: for concentration at 1 min / concentration at 5 min / concentration at 15 min / concentration at 30 min / concentration at 60 min / concentration at 120 min / concentration at 240 min / concentration at 360 min / concentration at 480 min: intraperitoneal
hCB1 = hCB1 (Homo sapiens, UniProt P21554); assay: Radioligand competition binding at hCB1; parameters: host or cells: HEK293SL cells, transient PEI transfection; details: for radioligand binding, competition curve point (normalized): log[drug]
Chain of hCB1 (P21554 whole entry): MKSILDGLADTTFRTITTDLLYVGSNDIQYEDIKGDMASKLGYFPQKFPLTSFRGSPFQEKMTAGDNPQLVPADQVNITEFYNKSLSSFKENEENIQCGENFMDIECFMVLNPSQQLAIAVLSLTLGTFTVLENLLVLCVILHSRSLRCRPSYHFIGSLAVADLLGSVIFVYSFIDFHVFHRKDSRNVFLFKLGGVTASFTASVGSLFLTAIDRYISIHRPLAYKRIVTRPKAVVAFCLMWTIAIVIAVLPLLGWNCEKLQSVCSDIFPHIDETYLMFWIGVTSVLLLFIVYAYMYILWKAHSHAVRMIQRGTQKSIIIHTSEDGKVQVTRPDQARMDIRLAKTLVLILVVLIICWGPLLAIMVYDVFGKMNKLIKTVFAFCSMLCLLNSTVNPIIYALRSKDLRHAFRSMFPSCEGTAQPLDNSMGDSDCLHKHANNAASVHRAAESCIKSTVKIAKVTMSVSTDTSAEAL

hCB2 = hCB2 (Homo sapiens, UniProt P34972); assay: Radioligand competition binding, HEK293 cells expressing human CB2R; parameters: expressed in transfected cells; host or cells: HEK293 cells stably expressing human CB2R (Laboratory of Ken Mackie); details: hCB2, log[drug], replicate columns
Chain of hCB2 (P34972 whole entry): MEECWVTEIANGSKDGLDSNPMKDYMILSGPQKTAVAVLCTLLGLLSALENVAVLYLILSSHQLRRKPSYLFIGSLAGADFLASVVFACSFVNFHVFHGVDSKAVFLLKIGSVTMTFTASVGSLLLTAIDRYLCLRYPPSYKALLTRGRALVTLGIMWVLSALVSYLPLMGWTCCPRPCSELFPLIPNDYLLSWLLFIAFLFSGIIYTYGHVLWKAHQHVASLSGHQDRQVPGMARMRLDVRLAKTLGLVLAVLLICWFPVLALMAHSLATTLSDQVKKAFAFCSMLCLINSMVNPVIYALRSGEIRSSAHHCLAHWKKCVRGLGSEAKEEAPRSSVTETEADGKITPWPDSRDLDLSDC

mice [3] = assay: Tail flick, 50 °C water bath; assay type: in vivo, mouse; details: individual animals, sheet Figure7b, test not given
[4] = male, CD-1, mouse, CSF, 0.2 mg/kg
[5] = male, CD-1, mouse, brain, 0.2 mg/kg
[6] = male, CD-1, mouse, plasma, 0.2 mg/kg
[7] = male, CD-1, mouse, plasma, ip, 0.2 mg/kg

Q: Which “acetone test response after spared nerve injury (Figure5b), individual animals” value (mice [1]; Dose 0.2 mg/kg) does the source give for `Cc1cc(C(=O)NC(C)(c2ccco2)c2ccco2)nn1-c1cccc(C(F)(F)F)c1` [‘4936] here?
A: The value was 92 and 82 and 36 and 30 and 65.

Q: And the “effect on acetone-induced nocifensive behaviors” value (mice [1]; spared nerve injury, i.p.)?
A: The value was “strongly reduced spared nerve injury-induced cold allodynia”.

Q: What about the “brain AUC0→inf” value ([2]; 0.2 mg/kg i.p., CD-1 mice) of the same compound?
A: The value was 5610 ng·min/mL.

Q: What about the “brain Cmax” value ([2]; 0.2 mg/kg i.p., CD-1 mice) of the same compound?
A: Its value is 26.2 ng/g.

Q: What about the “level in CSF” value ([2]; 0.2 mg/kg i.p., CD-1 mice) of the same compound?
A: Its value is “but not CSF compartments”.

Q: And the concentration at 1 min [2, 4]?
A: Its concentration at 1 min is 0 ng/mL.

Q: And the concentration at 5 min [2, 4]?
A: The concentration at 5 min was 0 ng/mL.

Q: What about the concentration at 15 min [2, 4] of the same compound?
A: Its concentration at 15 min is 0 ng/mL.

Q: And the concentration at 30 min [2, 4]?
A: Its concentration at 30 min is 0 ng/mL.

Q: What about the concentration at 60 min [2, 4] of the same compound?
A: The concentration at 60 min was 0 ng/mL.

Q: And the concentration at 120 min [2, 4]?
A: Its concentration at 120 min is 0 ng/mL.

Q: What about the concentration at 240 min [2, 4] of the same compound?
A: Its concentration at 240 min is 0 ng/mL.

Q: What about the concentration at 360 min [2, 4] of the same compound?
A: Its concentration at 360 min is 0 ng/mL.

Q: What about the concentration at 480 min [2, 4] of the same compound?
A: The concentration at 480 min was 0 ng/mL.

Q: What about the concentration at 1 min [2, 5] of the same compound?
A: Its concentration at 1 min is 0 ng/g.

Q: What about the concentration at 5 min [2, 5] of the same compound?
A: The concentration at 5 min was 2.39 ng/g.

Q: And the concentration at 15 min [2, 5]?
A: Its concentration at 15 min is 12 ng/g.

Q: What about the concentration at 30 min [2, 5] of the same compound?
A: The concentration at 30 min was 25.2 ng/g.

Q: And the concentration at 60 min [2, 5]?
A: The concentration at 60 min was 26.1 ng/g.

Q: What about the concentration at 120 min [2, 5] of the same compound?
A: The concentration at 120 min was 17.9 ng/g.

Q: And the concentration at 240 min [2, 5]?
A: The concentration at 240 min was 6.06 ng/g.

Q: What about the concentration at 360 min [2, 5] of the same compound?
A: The concentration at 360 min was 7.4 ng/g.

Q: And the concentration at 480 min [2, 5]?
A: The concentration at 480 min was 1.98 ng/g.

Q: What about the half-life ([2]; male, CD-1, mouse, brain, ip, 0.2 mg/kg) of the same compound?
A: The half-life was 2.08 h.

Q: What about the concentration at 1 min [2, 6] of the same compound?
A: Its concentration at 1 min is 0 ng/mL.

Q: What about the concentration at 5 min [2, 6] of the same compound?
A: The concentration at 5 min was 0.512 ng/mL.

Q: And the concentration at 15 min [2, 6]?
A: Its concentration at 15 min is 1.63 ng/mL.

Q: What about the concentration at 30 min [2, 6] of the same compound?
A: The concentration at 30 min was 4.54 ng/mL.

Q: And the concentration at 60 min [2, 6]?
A: The concentration at 60 min was 3.59 ng/mL.

Q: And the concentration at 120 min [2, 6]?
A: The concentration at 120 min was 3.55 ng/mL.

Q: What about the concentration at 240 min [2, 6] of the same compound?
A: The concentration at 240 min was 1.18 ng/mL.

Q: And the concentration at 360 min [2, 6]?
A: The concentration at 360 min was 0.867 ng/mL.

Q: And the concentration at 480 min [2, 6]?
A: The concentration at 480 min was 0 ng/mL.

Q: And the AUC(0-inf) [2, 7]?
A: Its AUC(0-inf) is 14.4 ng·h/mL.

Q: What about the Cmax [2, 7] of the same compound?
A: The Cmax was 4.5 ng/mL and 11 nM.

Q: What about the Ki (hCB1) of the same compound?
A: The Ki was 3.98 nM.

Q: What about the “radioligand binding, competition curve point (normalized)” value (shortened to “radioligand binding … (normalized)”) (hCB1; M = -5.643, replicate columns) of the same compound?
A: The value was -14.5136 and 0.4673.

Q: What about the “radioligand binding … (normalized)” value (hCB1; M = -6.357, replicate columns) of the same compound?
A: The value was -3.19 and 6.075.

Q: What about the “radioligand binding … (normalized)” value (hCB1; M = -7.07, replicate columns) of the same compound?
A: Its value is 20.4147 and 9.813.

Q: What about the “radioligand binding … (normalized)” value (hCB1; M = -7.783, replicate columns) of the same compound?
A: Its value is 36.2041 and 27.8816.

Q: What about the “radioligand binding … (normalized)” value (hCB1; M = -8.496, replicate columns) of the same compound?
A: The value was 40.1914 and 64.2523.

Q: What about the “radioligand binding … (normalized)” value (hCB1; M = -9.21, replicate columns) of the same compound?
A: The value was 71.0526 and 82.243.

Q: What about the “radioligand binding … (normalized)” value (hCB1; M = -9.923, replicate columns) of the same compound?
A: Its value is 77.9904 and 73.053.

Q: And the “radioligand binding … (normalized)” value (hCB1; M = -10.636, replicate columns)?
A: The value was 83.8915 and 104.439.

Q: What about the “radioligand binding … (normalized)” value (hCB2; M = -6.64345) of the same compound?
A: Its value is 0.8301 and 3.196.

Q: And the “radioligand binding … (normalized)” value (hCB2; M = -7.35666)?
A: The value was 5.0447 and 7.642.

Q: What about the “radioligand binding … (normalized)” value (hCB2; M = -8.06987) of the same compound?
A: The value was 20.2107 and 22.6869.

Q: And the “radioligand binding … (normalized)” value (hCB2; M = -8.78308)?
A: Its value is 55.4917 and 61.8361.

Q: And the “radioligand binding … (normalized)” value (hCB2; M = -9.49629)?
A: The value was 84.5147 and 77.217.

Q: And the “radioligand binding … (normalized)” value (hCB2; M = -10.2095)?
A: The value was 91.2197 and 92.4778.

Q: What about the “radioligand binding … (normalized)” value (hCB2; M = -10.9227) of the same compound?
A: Its value is 85.5045 and 95.2415.

Q: What about the “radioligand binding … (normalized)” value (hCB2; M = -11.6359) of the same compound?
A: Its value is 108.381 and 91.8049.

Q: Which results are given for `COC(=O)C(C)(NC(=O)c1cc(C)n(-c2cccc(C(F)(F)F)c2)n1)c1cccs1` (stereo not drawn) [‘4042]?
A: Response relative to baseline (baseline about 100) (mice [3]; '4042 0.05 mg/kg, 0.05 mg/kg): 262 and 191 and 164 and 198 and 183; Response relative to baseline (baseline about 100) (mice [3]; '4042 0.1 mg/kg, 0.1 mg/kg): 419.4 and 155.9 and 181.4 and 122.5 and 239.8
